Assay results published in US20090291910A1, “AGENT AND FOOD FOR PREVENTING/IMPROVING FUNCTIONAL DIGESTIVE DISORDER” (AJINOMOTO CO., INC, priority 2004, published 2009).

Assays:
[1] = tested on: stomach emptying; experiment: gastric emptying rate, phenol red in 5% casein fluid diet; conditions: oral in 5% casein fluid diet, 30 min; for stomach emptying rate: FIGS. 7A, 7B, 7C
[2] = tested on: stomach emptying; experiment: stomach emptying, glass beads distribution in stomach and small intestine; assay type: in vivo, SD rats; conditions: 1% monosodium glutamate in 5% casein, 10 mL/kg oral; beads 1 hr later, autopsy 30 min later; N=5 vs N=4; FIG. 5
Method: 7-to 9-week-old male SD rats were fasted overnight and applied to the experiment. A test diet was orally administered at a volume of 10 mL/kg and, 1 hr later, about 80 glass beads having a diameter of 1 mm were orally administered. The rats were autopsied 30 min later, and the number of beads present in the stomach and small intestine was counted. The small intestine was divided into 4, and named B1-B4 from the area near the stomach.

[3] = tested on: vagus nerve afferent pathway; conditions: cited from earlier work
[4] = tested on: NO release in the stomach mucous membrane; experiment: NO release in the stomach mucous membrane during intragastric perfusion (NO electrode); assay type: in vivo, SD rat
Method: SD rat was subjected to laparotomy with urethane anesthesia, a small incision was made in the anterior stomach and the small intestine, a 2 mm diameter polyethylene tube was inserted, and the perfusate was introduced and discharged with a Perista Pump. The perfusate was heated to 38° C. and the flow rate was 1 mL/min. The NO electrode was maintained under the lamina muscularis mucosae together with a temperature sensor, saline was perfused in the stomach for 2-3 hr, the released NO value was stabilized, and isotonic MSG solution (150 mM) was perfused during the time zone of 14:00-18:00.

[5] = tested on: plasma 5HT and 5HIAA in portal blood; experiment: leakage of serotonin and 5HIAA in the portal blood after intragastric administration; assay type: in vivo, SD rats; conditions: 450 mM MSG 2 mL oral, 0-60 min
Method: Male SD rats (8-week-old) were used. They were bred in a light-dark control room with a 7:00-19:00 light period. […] The catheter was filled with saline containing 10 unit/mL heparin to prevent hematological coagulation in the catheter. Saline and MSG 450 mM solution were each administered orally by 2 mL using an oral sonde. The blood was drawn every 10 min from 10 min before the administration to 60 min after the administration. To prevent unnecessary platelet activation, blood samples were collected with sufficient attention. […] To the separated plasma was rapidly added an equivalent amount of a mixture (adjusted to pH 2) of acetic acid and hydrochloric acid to eliminate protein. The serotonin (5-HT) amount and 5HIAA amount contained in the supernatant were analyzed by an electric chemical detector (ECD-100, manufactured by Accom Inc.). The analysis conditions were as follows.
Using the aforementioned analysis method, serotonin and 5HIAA of stable metabolite thereof of the same sample were quantitated. […] Each was normalized based on the value at 0 min immediately after administration as 100%. The blood collection time immediately after 2 mL intragastric administration was taken as 0 min.

N[C@@H](CCC(=O)[O-])C(=O)[O-].[Ca+2] [calcium glutamate]
stomach emptying rate [1]: promote stomach emptying

N[C@@H](CCC(=O)O)C(=O)O [glutamic acid]
distribution of beads in stomach and small intestine versus control group [2]: tends to contain a smaller number of beads in the stomach and a large number of beads in the small intestine

N[C@@H](CCC(=O)O)C(=O)[O-].[Na+] [monosodium glutamate]
activation of the vagus nerve afferent pathway ([3]; administration into the stomach and duodenum): activates the vagus nerve afferent pathway
activation of the vagus nerve ([3]; intravenous and intraportal administration): does not activate the vagus nerve
NO concentration in the stomach mucous membrane ([4]; MSG (2.5%) perfusion, FIG. 3): confirmed to increase
latent time of increase in released NO ([4]; isotonic MSG (2.5%) perfused in the stomach): ~15 min
cases with an increase in the released NO ([4]; isotonic MSG (2.5%, 150 mM) perfused in the stomach): 3 cases out of 20 cases
relative concentration of plasma 5HT in portal blood versus saline administration ([5]; FIG. 4A): no difference
relative concentration of plasma metabolite 5HIAA in portal blood versus saline administration ([5]; FIG. 4B): showed an increase beyond the increase by the saline administration group
stomach emptying degree with the stomach emptying rate of the control group as 100 ([1]; FIGS. 6A, 6B): promoted stomach emptying

arginine glutamic acid salt
comparison of stomach emptying effect with sodium salt ([1]; FIGS. 6A, 6B): promotes stomach emptying from lower doses as compared to sodium salt
stomach emptying degree with the stomach emptying rate of the control group as 100 ([1]; FIGS. 6A, 6B): promoted stomach emptying

lysine glutamic acid salt
stomach emptying rate [1]: promote stomach emptying
